{"source": "patent US20240358671A1", "about": "“COMPOSITIONS AND METHODS TO TREAT SKIN DISORDERS” (THE TRUSTEES OF INDIANA UNIVERSITY, priority 2021, published 2024)", "key": {"PPARδ": {"system": "PPARδ", "test": "PPARδ gene expression in S-1-P treated human keratinocytes", "assay_type": "cell-based", "settings": "human keratinocytes treated with S-1-P, standard culture conditions", "method": "Spingosine-1-phosphate methylates PPARδ promoter. Cutaneous ceramide is degraded to sphingosine by bacterial ceramidase. Sphingosine is phosphorylated to sphingosine-1 phosphate (S-1-P) which is a bioactive lipid and can epigenetically downregulate gene regulation. Thus, a plausible role of S-1-P in regulating PPARδ in our experimental systems was tested. In the porcine pre-clinical model of wound biofilm infection elevated levels of S-1-P was detected following PAwt, but not PAΔCer, infection. […] Under standard culture conditions when human keratinocytes were treated with the bioactive sphingolipid S-1-P, gene expression of PPARδ was blunted. To determine whether such downregulation of PPARδ was epigenetically regulated, CpG methylation of the PPARδ promoter was studied."}, "PPARδ promoter": {"system": "PPARδ promoter", "test": "Bisulfite sequencing of PPARδ promoter (CpG methylation)", "assay_type": "cell-based, human", "settings": "HaCaT keratinocytes; S-1-P 5 μM, 48 hours", "method": "The PCR products were gel extracted (GenElute Gel Extraction Kit, Sigma, cat #NA1111-1KT) and Sanger sequencing was done using ABI 3730 Genetic Analyzer. Analysis was done using Sequencher 5.4.5 (Gene Codes Corporation, MI). Results were confirmed by cloning the purified DNA into pGEM-T Easy Vector System II (Promega, cat #A1380), followed by sequencing.\nBisulfite conversion of DNA from HaCaT keratinocytes were transfected with Sphingosine-1-phosphate (5 μM, 48 hours) was performed using the Cells-to-CpG Bisulfite Conversion Kit (Thermo Fisher Scientific, part number: 4445555), as per manufacturer's protocol. The cells were lysed, and DNA was denatured using the denaturation reagent in a PCR tube at 50° C. for 10 min. Unmethylated cytosines were converted to uracil in the denatured DNA samples via treatment with conversion buffer containing bisulfite in a PCR reaction under following conditions: (1) 65° C. for 30 min, (2) 95° C. for 1.5 min, (3) 65° C. for 30 min, (4) 95° C. for 1.5 min, (5) 65° C. for 30 min, and (6) 4° C. up to 4 hr. This was followed by the removal of salts and desulfonation of the converted DNA in a binding column, a series of washing steps, and then elution of DNA. The converted DNA was stored at […] until further used."}, "DNMT3B": {"system": "DNMT3B", "test": "DNMT3B activity assay", "assay_type": "cell-based", "settings": "human keratinocytes; 5 μmol S-1-P, 48 h", "method": "Human keratinocytes cells were treated with 5 μmol of Sphingosine-1-phosphate (Avanti) for 48 h. Cells were collected and DNMT3B activity was measured using EpiQuik DNMT3B Activity/Inhibitor Screening Assay Core Kit (EPIGENTEK) according to manufacturer's instructions and using recombinant DNMT3B protein, (ACTIVE MOTIF) as a positive control for the assay."}, "DNA methyl transferases": {"system": "DNA methyl transferases", "test": "DNA methyl transferase expression in S-1-P treated HK", "assay_type": "cell-based, human", "from_the_text": "(§1) FIGS. 11A-11O illustrate additional experimental results. FIG. 11A: Vector map of PPARδ promoter luciferase reporter. FIGS. 11B-11C: PPARδ drives CerS3 expression. CerS3 expression in human keratinocytes (HK) treated with PPARδ agonist (GW501516, 1 μmol/ml) or antagonist (GSK0660, 1 μmol/ml) as measured by qPCR. Data presented as mean±SEM (n=5). FIGS. 11D-11F: Upregulation of DNA methyl transferases in S-1-P treated HK. Data presented as mean±SEM (n=8). FIGS. 11G-11J: Induction of histone deacetylases in S-1P treated HK. Data presented as mean±SEM (n=8). FIGS. 11K-11N) Other histone deacetylases in S-1P treated HK. […] Data presented as mean±SEM, (n=8). FIG. 11O: miR-106b expression in HK treated with S-1-P (5 μmol/ml). Data presented as mean±SEM (n=8)."}, "histone deacetylases": {"system": "histone deacetylases", "test": "Histone deacetylase expression in S-1-P treated HK", "assay_type": "cell-based, human", "from_the_text": "as §1"}, "miR-106b": {"system": "miR-106b", "test": "miR-106b expression in HK treated with S-1-P", "assay_type": "cell-based, human", "settings": "HK treated with S-1-P 5 μmol/ml", "from_the_text": "as §1"}}, "note": "“Also recorded” adds a separate entry of the source.", "data": [{"smiles": "CCCCCCCCCCCCC/C=C/[C@@H](O)[C@@H](N)COP(=O)(O)O", "note": "[S-1-P, sphingosine-1 phosphate]", "values": [{"measurement": "gene expression of PPARδ", "setting": "PPARδ", "value": "blunted; also recorded: epigenetically silenced"}, {"measurement": "PPARδ promoter methylation", "setting": "PPARδ promoter", "value": "caused promoter methylation"}, {"measurement": "catalytic activity of DNA methyl transferase 3B (DNMT3B)", "setting": "DNMT3B", "value": "augmented catalytic activity"}, {"measurement": "DNA methyl transferases expression (FIGS. 11D-11F)", "setting": "DNA methyl transferases", "value": "Upregulation"}, {"measurement": "histone deacetylases expression (FIGS. 11G-11J)", "setting": "histone deacetylases", "value": "Induction"}, {"measurement": "other histone deacetylases expression (FIGS. 11K-11N)", "setting": "histone deacetylases", "value": "No significant changes"}, {"measurement": "miR-106b expression", "setting": "miR-106b", "value": "Induction"}]}]}
